From patent publication US20030215817A1, “Modulation of gene expression in formation of fatty atherosclerotic lesions” (priority 2003, published 2003)
Where a name gives a salt, the structure may show the parent alone.

Experiments:
Format in all cases: in vivo, rabbit
[1] = tested on: REC1_1 (MspI AAGC 288) mRNA, TYRO protein tyrosine kinase binding p; test: TOGA analysis, REC1_1
Method: (§1) To perform the studies, New Zealand male rabbits weighing 2.0-2.5 kg (Charles River, Calco, Italy) were used. The rabbits were divided into three groups and maintained in identical experimental conditions: (1) control group (n=15); rabbits fed a cholesterol-rich diet; (2) lercanidipine-treated group (n=15); rabbits fed a cholesterol-rich diet and also treated with lercanidipine (3 mg/kg/week); and (3) (R)-lercanidipine-treated group (n=5); rabbits fed a cholesterol-rich diet and also treated with the (R)-enantiomer of lercanidipine (3 mg/kg/week). After a 2 week period of subcutaneous, once a week, pretreatment with 3 mg/kg/week of lercanidipine or (R)-lercanidipine, the rabbits received a daily cholesterol supplement for up to 8 weeks or 2 weeks, respectively. In the following examples, use of the term “lercanidipine” refers to the racemic mixture of lercanidipine hydrochloride, whereas “(R)-lercanidipine” refers to the (R)-enantiomer of lercanidipine hydrochloride.
(§2) The mRNA from the above-described groups was isolated from aorta at different time points, resulting in the following mRNA samples: (1) Day 0 Control=no administered cholesterol, no lercanidipine; (2) Day 0+lercanidipine=no administered cholesterol, treatment with lercanipidine (2 weeks; 3 mg/kg/week); (3) Day 14 Control=cholesterol diet for two weeks, no lercanidipine; (4) Day 14+lercanidipine=cholesterol diet for two weeks, treatment with lercanidipine (four weeks; 3 mg/kg/week); (5) Week 8 Control=cholesterol diet for 8 weeks, no lercanidipine; and (6) Week 8+lercanidipine=cholesterol diet for 8 weeks, treatment with lercanidipine (10 weeks; 3 mg/kg/week). In addition, Day 14+(R)-lercanidipine mRNA samples were prepared from rabbits given a cholesterol diet for two weeks and treated with 3 mg/kg/week (R)-lercanidipine for four weeks.
(§3) Aorta mRNAs were prepared in the following manner. First, the aortas from each experimental group were retrieved and shredded using a polytron homogenizer. The samples were further homogenized using a teflon pestle, after which the cellular debris, nuclei, and blood cells were pelleted by centrifugation. The supernatants were extracted twice with phenol-chloroform-isoamyl alcohol and once with chloroform-isoamyl alcohol. RNA was then precipitated from the aqueous phase with ethanol. The poly A+ mRNA was prepared using standard methods of polyA selection known in the art (Schriber et al., J. Mol. Biol., 142:93-116 (1980)).
(§4) The isolated mRNA was analyzed using a method of simultaneous sequence-specific identification of mRNAs known as TOGA, described in U.S. Pat. No. 5,459,037 and U.S. Pat. No. 5,807,680, hereby incorporated herein by reference. In a preferred embodiment, the TOGA method further comprised an additional PCR step performed using a mixture of four 5′ PCR primers and cDNA templates prepared from a population of antisense cRNAs. A final PCR step that used a mixture of 256 5′ PCR primers produced PCR products that were cDNA fragments that corresponded to the 3′-region of the starting mRNA population. The produced PCR products were then identified by: (a) the initial 5′ sequence comprising the sequence remainder of the recognition site of the restriction endonuclease used to cut and isolate the 3′ region plus the sequence of the preferably four parsing bases immediately 3′ to the remainder of the recognition site, preferably the sequence of the entire fragment; and (b) the length of the fragment. These two parameters, sequence and fragment length, were used to compare the obtained PCR products to a database of known polynucleotide sequences. Since the length of the obtained PCR products includes known vector sequences at the 5′ and 3′ ends of the insert, the sequence of the insert provided in the sequence listing is shorter than the fragment length that forms part of the digital address.
(§5) The method yields Digital Sequence Tags (DSTs), that is, polynucleotides that are expressed sequence tags of the 3′ end of mRNAs. […]

[2] = tested on: REC1_3 (MspI ACGG 162) mRNA; test: TOGA analysis, REC1_3
Method: as §1, §2, §3
as §4, with “These two parameters, sequence and fragment length, were used to compare the obtained PCR products to a database of known polynucleotide sequences. Since the length of the obtained PCR products includes known vector sequences at the 5′ and 3′ ends of the insert, the sequence of the insert provided in the sequence listing is shorter than the fragment length that forms part of the digital address.” left out

[3] = tested on: REC1_7 (MspI CACA 282) mRNA; test: TOGA analysis, REC1_7
Method: as §1, §2, §3, §4, §5

[4] = tested on: REC1_22 (digital address TGGG 164) mRNA; test: TOGA analysis, REC1_22
Method: as §1, §2, §3, §4, §5

[5] = tested on: REC1_24 (digital address CCGG 232) mRNA; test: TOGA analysis, REC1_24
Method: as §1, §2, §3, §4, §5

[6] = tested on: REC1_36 (digital address TTAG 155) mRNA; test: TOGA analysis, REC1_36
Method: as §1, §2, §3, §4, §5

[7] = tested on: REC1_28 (digital address CGGT 101) mRNA, calgizzarin; test: TOGA analysis, REC1_28
Method: as §1, §2, §3, §4, §5

[8] = tested on: REC1_31 (digital address TGCA 210) mRNA, mitochondrial genome; test: TOGA analysis, REC1_31
Method: as §1, §2, §3, §4, §5

[9] = tested on: REC1_33 (digital address CCGA 96) mRNA, as1_casein gene; test: TOGA analysis, REC1_33
Method: as §1, §2, §3, §4, §5

[10] = tested on: REC1_34 (digital address CGGT 209) mRNA; test: TOGA analysis, REC1_34
Method: as §1, §2, §3, §4, §5

[11] = tested on: REC1_37 (digital address TTCA 264) mRNA, ribosomal protein L15; test: TOGA analysis, REC1_37
Method: as §1, §2, §3, §4, §5

[12] = TOGA, hypercholesterolemic plus lercanidipine racemate, eight weeks, H2 (normocholesterolemic)=1.0
[13] = aorta at day 0: no cholesterol, 3 mg/kg/week for 2 weeks
[14] = aorta at day 14 of cholesterol administration, 3 mg/kg/week for 4 weeks
[15] = aorta at week 8 of cholesterol administration, 3 mg/kg/week for 10 weeks
[16] = aorta at day 14 of cholesterol diet, 3 mg/kg/week for 4 weeks
[17] = aorta at day 14 of cholesterol, 3 mg/kg/week for 4 weeks

Compound: COC(=O)C1=C(C)NC(C)=C(C(=O)OC(C)(C)CN(C)CCC(c2ccccc2)c2ccccc2)C1c1cccc([N+](=O)[O-])c1 (racemic) [lercanidipine, lercanidipine hydrochloride]
- level of gene expression (TOGA), 8 Week hypercholesterol + Lercanidipine ([1]; REC1_1, AAGC 288, rabbit aorta, 8 weeks cholesterol + lercanidipine): 1733
- level of gene expression (TOGA), 14 Day hypercholesterol + Lercanidipine ([1]; REC1_1, AAGC 288, rabbit aorta, 14 days cholesterol + lercanidipine): 753
- level of gene expression (TOGA), Normal + Lercanidipine ([1]; REC1_1, AAGC 288, rabbit aorta, no cholesterol, lercanidipine): 215
- Relative Abundance Rec1_1, TOGA, F [1, 12]: 6.9
- level of gene expression of REC1_1 (TOGA) ([1]; aorta at 8 weeks of cholesterol administration, 3 mg/kg/week for 10 weeks): 1733
- level of gene expression of REC1_1 (TOGA) [1, 13]: 215
- level of gene expression of REC1_1 (TOGA) ([1]; aorta at day 14 of cholesterol treatment, 3 mg/kg/week for 4 weeks): 753
- level of gene expression (TOGA), 8 Week hypercholesterol + Lercanidipine ([2]; REC1_3, ACGG 162, rabbit aorta, 8 weeks cholesterol + lercanidipine): 65
- level of gene expression (TOGA), 14 Day hypercholesterol + Lercanidipine ([2]; REC1_3, ACGG 162, rabbit aorta, 14 days cholesterol + lercanidipine): 68
- level of gene expression (TOGA), Normal + Lercanidipine ([2]; REC1_3, ACGG 162, rabbit aorta, no cholesterol, lercanidipine): 54
- Relative Abundance Rec1_3, TOGA, F [2, 12]: 0.8
- level of gene expression (TOGA), 8 Week hypercholesterol + Lercanidipine ([3]; REC1_7, CACA 282, rabbit aorta, 8 weeks cholesterol + lercanidipine): 159
- level of gene expression (TOGA), 14 Day hypercholesterol + Lercanidipine ([3]; REC1_7, CACA 282, rabbit aorta, 14 days cholesterol + lercanidipine): 417
- level of gene expression (TOGA), Normal + Lercanidipine ([3]; REC1_7, CACA 282, rabbit aorta, no cholesterol, lercanidipine): 863
- Relative Abundance Rec1_7, TOGA, F [3, 12]: 0.2
- level of gene expression of REC1_7 (TOGA) [3, 13]: 863
- level of gene expression of REC1_7 (TOGA) [3, 14]: 417
- level of gene expression of REC1_7 (TOGA) [3, 15]: 159
- level of gene expression, 8 Week hypercholesterol + Lercanidipine ([4]; REC1_22 TGGG 164, rabbit aorta, cholesterol 8 weeks): 122
- level of gene expression, 14 Day hypercholesterol + Lercanidipine ([4]; REC1_22 TGGG 164, rabbit aorta, cholesterol 14 days): 194
- level of gene expression, Normal + Lercanidipine ([4]; REC1_22 TGGG 164, rabbit aorta, no cholesterol): 87
- level of gene expression of REC1_22 (TOGA) [4, 13]: 87
- level of gene expression of REC1_22 (TOGA) [4, 14]: 194
- level of gene expression, 8 Week hypercholesterol + Lercanidipine ([5]; REC1_24 CCGG 232, rabbit aorta, 8 weeks cholesterol): 117
- level of gene expression, 14 Day hypercholesterol + Lercanidipine ([5]; REC1_24 CCGG 232, rabbit aorta, 14 days cholesterol): 104
- level of gene expression, Normal + Lercanidipine ([5]; REC1_24 CCGG 232, rabbit aorta, no cholesterol): 122
- level of gene expression of REC1_24 (TOGA) [5, 13]: 122
- level of gene expression of REC1_24 (TOGA) [5, 16]: 104
- level of gene expression, 8 Week hypercholesterol + Lercanidipine ([6]; REC1_36 TTAG 155, rabbit aorta, cholesterol 8 weeks): 400
- level of gene expression, 14 Day hypercholesterol + Lercanidipine ([6]; REC1_36 TTAG 155, rabbit aorta, cholesterol 14 days): 683
- level of gene expression, Normal + Lercanidipine ([6]; REC1_36 TTAG 155, rabbit aorta, no cholesterol): 186
- Relative Abundance Rec1_36, TOGA, F [6, 12]: 0.5
- level of gene expression of REC1_36 (TOGA) [6, 14]: 683
- level of gene expression of REC1_36 (TOGA) [6, 15]: 400
- level of gene expression, 8 Week hypercholesterol + Lercanidipine ([7]; REC1_28 CGGT 101, rabbit aorta, 8 weeks cholesterol): 176
- level of gene expression, 14 Day hypercholesterol + Lercanidipine ([7]; REC1_28 CGGT 101, rabbit aorta, 14 days cholesterol): 189
- level of gene expression, Normal + Lercanidipine ([7]; REC1_28 CGGT 101, rabbit aorta, no cholesterol): 229
- level of gene expression of REC1_28 (TOGA) [7, 13]: 229
- level of gene expression of REC1_28 (TOGA) [7, 16]: 189
- level of gene expression, 8 Week hypercholesterol + Lercanidipine ([8]; REC1_31 TGCA 210, rabbit aorta, cholesterol 8 weeks): 245
- level of gene expression, 14 Day hypercholesterol + Lercanidipine ([8]; REC1_31 TGCA 210, rabbit aorta, cholesterol 14 days): 619
- level of gene expression, Normal + Lercanidipine ([8]; REC1_31 TGCA 210, rabbit aorta, no cholesterol): 464
- level of gene expression of REC1_31 (TOGA) [8, 13]: 464
- level of gene expression of REC1_31 (TOGA) [8, 14]: 619
- level of gene expression, 8 Week hypercholesterol + Lercanidipine ([9]; REC1_33 CCGA 96, rabbit aorta, 8 weeks cholesterol): 156
- level of gene expression, 14 Day hypercholesterol + Lercanidipine ([9]; REC1_33 CCGA 96, rabbit aorta, 14 days cholesterol): 842
- level of gene expression, Normal + Lercanidipine ([9]; REC1_33 CCGA 96, rabbit aorta, no cholesterol): 1094
- level of gene expression of REC1_33 (TOGA) [9, 13]: 1094
- level of gene expression of REC1_33 (TOGA) [9, 14]: 842
- level of gene expression, 8 Week hypercholesterol + Lercanidipine ([10]; REC1_34 CGGT 209, rabbit aorta, 8 weeks cholesterol): 203
- level of gene expression, 14 Day hypercholesterol + Lercanidipine ([10]; REC1_34 CGGT 209, rabbit aorta, 14 days cholesterol): 331
- level of gene expression, Normal + Lercanidipine ([10]; REC1_34 CGGT 209, rabbit aorta, no cholesterol): 100
- level of gene expression of REC1_34 (TOGA) [10, 13]: 100
- level of gene expression of REC1_34 (TOGA) [10, 17]: 331
- level of gene expression, 8 Week hypercholesterol + Lercanidipine ([11]; REC1_37 TTCA 264, rabbit aorta, cholesterol 8 weeks): 136
- level of gene expression, 14 Day hypercholesterol + Lercanidipine ([11]; REC1_37 TTCA 264, rabbit aorta, cholesterol 14 days): 915
- level of gene expression, Normal + Lercanidipine ([11]; REC1_37 TTCA 264, rabbit aorta, no cholesterol): 605
- level of gene expression of REC1_37 (TOGA) [11, 17]: 915
- level of gene expression of REC1_37 (TOGA) ([11]; aorta at week 8 of cholesterol, 3 mg/kg/week for 10 weeks): 136
